Test [1] concerns the target T1, C-RAF (Homo sapiens, UniProt P04049).
T1 construct: purchased Reaction Biology Corporation (Malvern, Pa.), contract assay service
In words: Kinase inhibition assay (Reaction Biology Corporation). It counts as biochemical. The conditions noted are these: 10 μM ATP, 10-point curve.

Test [2] concerns MEK or ERK1/2 phosphorylation in A375 BRAF V600E mutant melanoma cancer cells. Description: Immunoblot analysis of BRAF signaling. The conditions noted are these: FIG. 1B. Format: cell-based. As to the method:
(§1) Cells were lysed in SDS lysis buffer (0.06 M Tris-HCL. 1% SDS and 10% glycerol) and protein concentration was determined using a BCA Protein assay (Thermo Scientific). Cellular lysates ([…]) were resolved by electrophoresis and transferred to nitrocellulose membranes using NuPage Novex reagents (Invitrogen). Membranes were immunoblotted with the indicated antibodies (Cell Signaling Technology) and then exposed to Supersignal ELISA femto maximum sensitivity substrate (Thermo Scientific) to generate a chemiluminescent signal.

In test [3] the test system is MEK or ERK1/2 phosphorylation in HT-29 BRAF V600E mutant colorectal cancer cells. Description: Immunoblot analysis of BRAF signaling. Format: cell-based. The conditions noted are these: HT-29 cells, FIG. 4B. The procedure: as §1
For test [4], the system named is MEK or ERK1/2 phosphorylation in SH-4 BRAF V600E mutant melanoma cancer cells. In words: Immunoblot analysis of BRAF signaling. The conditions noted are these: SH-4 cells, FIG. 2B. It counts as cell-based. The procedure:
as §1
(Immunoblotting shows a protein as a band on a membrane.)

In test [5] the test system is CHL-1 BRAF wt melanoma cell line. In words: Cell growth assay (automated cell line screening, Ricerca Biosciences). Format: cell-based. To be noted: Homo sapiens, read-out: Ponatinib GI50 (nM), CHL-1, Melanoma, tested by Ricerca Biosciences. As to the method: (§2) Cell growth was assessed using the Cell Titer 96 Aqueous One Solution Cell Proliferation Assay (Promega) and absorbance was measured using a Wallac Victor microplate reader (PerkinElmer). To differentiate between a cytostatic and cytotoxic drug effect, the concentration that causes 50% growth inhibition (GI50) was determined by correcting for the cell count at time zero (time of treatment) and plotting data as percent growth relative to vehicle-treated cells using XLfit version 5.2.0 for Microsoft Excel. Data are shown as mean from 3 independent experiments performed in triplicate.
(§3) Cell growth assays were also performed as part of an automated cell line screening assay (Ricerca Biosciences, LLC, Bothell, Wash., USA). Experimental procedures are similar to those described above.

In test [6] the test system is C32 BRAF V600E het melanoma cell line. Described as above. It counts as cell-based. To be noted: Homo sapiens, read-out: Ponatinib GI50 (nM), tested by Ricerca Biosciences. As to the method: as §2, §3
Test [7] deals with A375 BRAF V600E melanoma cell line. Description: Cell growth assay. It counts as cell-based. The conditions noted are these: Homo sapiens, A-375, read-out: Ponatinib GI50 (nM), 72 hours. As to the method:
as §2

For test [8], the system named is SH-4 BRAF V600E melanoma cell line. In words: Cell growth assay. Format: cell-based. The conditions noted are these: Homo sapiens, read-out: Ponatinib GI50 (nM), SH-4, Melanoma, 72 hours. The procedure:
as §2

Test [9] relates to SK-MEL-24 BRAF V600E melanoma cell line. Description: Cell growth assay. The conditions noted are these: Homo sapiens, read-out: Ponatinib GI50 (nM), SK-MEL-24, Melanoma, 72 hours. It counts as cell-based. The procedure:
as §2

The subject of test [10] is HT-29 BRAF V600E colorectal cancer cell line. Description: Cell growth assay. It counts as cell-based. The conditions noted are these: Homo sapiens, read-out: Ponatinib GI50 (nM), HT-29, Colorectal, 72 hours. As to the method:
as §2

Experimental findings from US20150105377A1, “Methods and Compositions for RAF Kinase Mediated Diseases” (ARIAD Pharmaceuticals, Inc., priority 2012, published 2015) are described below.

T1 sequence (P04049 whole entry): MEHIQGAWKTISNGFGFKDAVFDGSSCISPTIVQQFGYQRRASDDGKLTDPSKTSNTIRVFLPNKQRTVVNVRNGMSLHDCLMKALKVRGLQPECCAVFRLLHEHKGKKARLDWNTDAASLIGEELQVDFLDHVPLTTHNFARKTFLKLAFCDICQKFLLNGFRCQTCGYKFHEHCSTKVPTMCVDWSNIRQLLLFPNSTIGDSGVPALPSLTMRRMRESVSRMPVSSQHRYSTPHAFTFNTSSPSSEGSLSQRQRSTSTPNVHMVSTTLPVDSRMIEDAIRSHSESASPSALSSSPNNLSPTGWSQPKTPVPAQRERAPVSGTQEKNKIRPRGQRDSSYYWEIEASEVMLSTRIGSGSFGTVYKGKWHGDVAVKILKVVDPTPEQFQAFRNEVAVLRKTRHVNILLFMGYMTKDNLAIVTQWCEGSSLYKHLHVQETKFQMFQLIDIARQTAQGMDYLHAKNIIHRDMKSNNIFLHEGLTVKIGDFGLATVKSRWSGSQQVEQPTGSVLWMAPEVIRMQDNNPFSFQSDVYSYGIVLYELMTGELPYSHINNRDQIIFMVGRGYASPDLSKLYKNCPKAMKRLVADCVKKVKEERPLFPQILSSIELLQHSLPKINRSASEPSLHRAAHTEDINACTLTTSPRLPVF

Usually IC50 stands for the concentration that gives 50% inhibition. Read a low IC50 as greater potency. In turn, `Cc1ccc(C(=O)Nc2cc(-n3ccnc3)cc(C(F)(F)F)c2)cc1C#Cc1cnc2c(NC(N)=O)cccn12` displayed an IC50 in test [1] (Table 2) of 12.7 nM. On the same count and under the same terms, next, `CN1CCN(Cc2ccc(NC(=O)c3ccc(F)c(C#Cc4cnc5ccccn45)c3)cc2C(F)(F)F)CC1`: 51.7 nM; `CN1CCN(Cc2ccc(NC(=O)c3cccc(C#Cc4cnc5ccccn45)c3)cc2C(F)(F)F)CC1`: 26.7 nM. Same read-out and setting: next, `CC(C)N1CCN(Cc2ccc(NC(=O)c3cncc(C#Cc4cnc5cnccn45)c3)cc2C(F)(F)F)CC1`: 14.4 nM. Still for that read-out and setting: next, `Cc1ccc(C(=O)Nc2cc(-n3cnc(C#N)c3)cc(C(F)(F)F)c2)cc1C#Cc1cnc2ccccn12`: 998 nM; `Cc1ccc(C(=O)Nc2ccc(CN3CCOCC3)c(C(F)(F)F)c2)cc1C#Cc1cnc2cnccn12`: 5.43 nM.

In test [1] (Table 2), `CC(=O)Nc1cccn2c(C#Cc3cc(C(=O)Nc4cccc(C(F)(F)F)c4)ccc3C)cnc12` displayed an IC50 of 7.3 nM. The same measure, in the same setting: next, `Cc1ccc(C(=O)Nc2cc(C(F)(F)F)ccc2NCCN2CCCC2)cc1C#Cc1cnc2ccccn12`: 24.3 nM. As for `CN1CCN(Cc2ccc(NC(=O)c3cccc(C#Cc4cnc5cnccn45)c3)cc2Cl)CC1`, the midpoint of inhibition in test [1] (Table 2), the IC50, lay at 3.96 nM.

As to `Cc1ccc(C(=O)Nc2ccc(CC(=N)N)c(C(F)(F)F)c2)cc1C#Cc1cnc2cccnn12`, in test [1] (Table 2), inhibition was half-maximal at 3.91 nM (IC50). The same measure, in the same setting: next, `Cc1ccc(C(=O)Nc2ccc(C#N)c(C(F)(F)F)c2)cc1C#Cc1cnc2ccccn12`: 57.3 nM; `CNC(=O)CNc1ccc(NC(=O)c2ccc(C)c(C#Cc3cnc4ccccn34)c2)cc1C(F)(F)F`: 29.5 nM. Still for that read-out and setting: next, `Cc1cnc(NC(=O)c2ccc(C)c(C#Cc3cnc4c(NC(N)=O)cccn34)c2)s1`: 2.49 nM.

In test [1] (Table 2), `O=C(Nc1cccc(C(F)(F)F)c1)c1cncc(C#Cc2cnc3cccnn23)c1` had an IC50 of 2.07 nM. The same measure, in the same setting: next, `Cc1ccc(C(=O)Nc2cc(-n3ccnc3)cc(C(F)(F)F)c2)cc1C#Cc1cnc2c(N)cccn12`: 51.1 nM; `Cc1ccc(C(=O)Nc2cc(-n3ccnc3CN(C)C)cc(C(F)(F)F)c2)cc1C#Cc1cnc2cnccn12`: 9.22 nM.

Consider `Cc1ccc(C(=O)Nc2ccc(CN3CCCC3)c(C(F)(F)F)c2)cc1C#Cc1cnc2ccccn12`, for which the IC50 in [1] (Table 2) amounted to 60.2 nM. Same read-out and setting: next, `Cc1ccc(C(=O)Nc2cc(C(F)(F)F)ccn2)cc1C#Cc1cnc2c(N)cccn12`: 4.78 nM. Still for that read-out and setting: next, `Cc1ccc(C(=O)Nc2cc(CN3CCOCC3)cc(C(F)(F)F)c2)cc1C#Cc1cnc2ccccn12`: 83.1 nM; `CC(=O)Nc1cccn2c(C#Cc3cc(NC(=O)Nc4cc(C(F)(F)F)ccn4)ccc3C)cnc12`: 5.09 nM; `Cc1ccc(C(=O)Nc2cc(C(C)(C)C)on2)cc1C#Cc1cnc2cccnn12`: 4.27 nM. Still for that read-out and setting: next, `Cc1ccc(C(=O)Nc2cc(N3CCOCC3)cc(C(F)(F)F)c2)cc1C#Cc1cnc2cccnn12`: 17.2 nM. Turning to `Cc1ccc(C(=O)Nc2cc(N(C)CCO)cc(C(F)(F)F)c2)cc1C#Cc1cnc2cccnn12`, 14.4 nM corresponded to half-maximal inhibition in test [1] (Table 2) (IC50). The molecule `Cc1ccc(C(=O)Nc2cccc(C(F)(F)F)c2)cc1C#Cc1cnc2cccnn12` displayed an IC50 in [1] (Table 2) of 1.45 nM. On to `Cc1ccc(C(=O)Nc2ccc(Cl)cc2)cc1C#Cc1cnc2cccnn12`, for which the IC50 in test [1] (Table 2) worked out at 10.7 nM.

On to `Cc1ccc(C(=O)Nc2cc(-n3cnc(CN(C)C)c3)cc(C(F)(F)F)c2)cc1C#Cc1cnc2cccnn12`, for which, in test [1] (Table 2), it took 3.84 nM to reach half-maximal inhibition (IC50). In [1] (Table 2), `Cc1ccc(C(=O)Nc2cc(-c3cncnc3)cc(C(F)(F)F)c2)cc1C#Cc1cnc2cccnn12` gave an IC50 of 8.5 nM. On the same count and under the same terms, next, `Cc1ccc(-c2nc3cc(C(F)(F)F)ccc3[nH]2)cc1C#Cc1cnc2cccnn12`: 5.8 nM. Same read-out and setting: next, `Cc1ccc(C(=O)Nc2cc(-n3cnc(CN4CCCC4)c3)cc(C(F)(F)F)c2)cc1C#Cc1cnc2cccnn12`: 9.19 nM; `Cc1ccc(C(=O)Nc2ccc(C(F)(F)F)cc2)cc1C#Cc1cnc2cccnn12`: 4.39 nM; `Cc1ccc(F)c(NC(=O)c2ccc(C)c(C#Cc3cnc4cccnn34)c2)c1`: 2.76 nM. Still for that read-out and setting: next, `Cc1cc(C#Cc2cnc3cccnn23)cc(C(=O)Nc2cccc(C(F)(F)F)c2)c1`: 2940 nM.

`Cc1ccc(NC(=O)c2ccc3ccn(C)c3c2)cc1C#Cc1cnc2cccnn12` returned an IC50 in test [1] (Table 2) of 3.12 nM. Same read-out and setting: next, `CN1CCN(Cc2ccc(NC(=O)c3cncc(C#Cc4cnc5cccnn45)c3)cc2Cl)CC1`: 25.6 nM. In turn, `Cc1ccc(C(=O)Nc2ccc(CN3CCN(C)CC3)c(C(F)(F)F)c2)cc1C#Cc1cnc2cnccn12` [Example 2, 3-(Imidazo[1,2-a]pyrazin-3-ylethynyl)-4-methyl-N-(4-((4-methylpiperazin-1-yl)methyl)-3-(trifluoromethyl)phenyl)benzamide] registered an IC50 in test [1] (Table 1) of 2.13 nM.

With `Cc1ccc(C(=O)Nc2ccc(CN3CCN(C)CC3)c(C(F)(F)F)c2)cc1C#Cc1cnc2ccccn12` [Example 8, 3-(Imidazo[1,2-a]pyridin-3-ylethynyl)-4-methyl-N-(4-((4-methylpiperazin-1-yl)methyl)-3-(trifluoromethyl)phenyl)benzamide], in test [1] (Table 1), it took 26 nM to reach half-maximal inhibition (IC50). On the same count and under the same terms, next, `CC(=O)Nc1cccn2c(C#Cc3cc(C(=O)Nc4cc(C(F)(F)F)ccn4)ccc3C)cnc12` [Example 10, 3-((8-Acetamidoimidazo[1,2-a]pyridin-3-yl)ethynyl)-4-methyl-N-(4-(trifluoromethyl)pyridin-2-yl)benzamide]: 2.42 nM; `Cc1ccc(NC(=O)c2ccc(CN3CCN(C)CC3)c(C(F)(F)F)c2)cc1C#Cc1cnc2cccnn12` [Example 15, N-(3-(Imidazo[1,2-b]pyridazin-3-ylethynyl)-4-methylphenyl)-4-((4-methylpiperazin-1-yl)methyl)-3-(trifluoromethyl)benzamide]: 12.2 nM. Usually GI50 stands for the concentration that inhibits growth by half. Regarding `Cc1ccc(C(=O)Nc2ccc(CN3CCN(C)CC3)c(C(F)(F)F)c2)cc1C#Cc1cnc2cccnn12` [Ponatinib, 3-(Imidazo[1,2-b]pyridazin-3-ylethynyl)-4-methyl-N-(4-((4-methylpiperazin-1-yl)methyl)-3-(trifluoromethyl)phenyl)benzamide], the “MEK or ERK1/2 phosphorylation” value in [2], in test [3] and in test [4] was “inhibit” in each case. For the same molecule, the GI50 came to 88.5 nM in test [5]; 107 nM in [6]; 372 nM in test [7]; 85.6 nM in test [8]; 767 nM in test [9]; 354 nM in [10].
